≈ marks a conversion by molar mass, not a printed value. Where two headings read alike, the source gives them in different places.
Key:
St. faecalis UC 694 = experiment: standard microplate test in BHI Agar (MIC), St. faecalis UC 694; format: cell-based; settings: Enterococcus faecalis, UC694, 20 h
Procedure, shortened: (§1)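 A standard microplate test on Brain Heart Infusion agar is run with compound at 1 mg/ml, incubated at 37°, and scored at 20 hours.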

S. marcescens UC 131 = experiment: standard microplate test in BHI Agar (MIC), S. marcescens UC 131; format: cell-based; settings: Serratia marcescens, UC131, 20 h, read-out: Minimum Inhibitory Concentration, S. marcescens UC 131, retest table, neamine control
Procedure, shortened: as §1

S. aureus UC 746 = experiment: standard microplate test in BHI Agar (MIC), S. aureus UC 746; format: cell-based; settings: Staphylococcus aureus, UC746, 20 h, 37°, first table, read-out: Minimum Inhibitory Concentration
Protocol: (§2) Compounds were also tested in a standard microplate test in Brain Heart Infusion (BHI) Agar, at a concentration of 1 mg/ml. Incubation is at 37° and end points are read at 20 hours. Brain Heart Infusion Agar (supplied by Difco Laboratories, Detroit, Michigan, U.S.A.) has the following composition: […]

Ps. aeruginosa UC 95 = experiment: standard microplate test in BHI Agar (MIC), Ps. aeruginosa UC 95; format: cell-based; settings: Pseudomonas aeruginosa, UC95, 20 h, read-out: Minimum Inhibitory Concentration, Ps. aeruginosa UC 95
Procedure, shortened: as §1

S. schottmuelleri UC 126 = experiment: standard microplate test in BHI Agar (MIC), S. schottmuelleri UC 126; format: cell-based; settings: 20 h, read-out: Minimum Inhibitory Concentration
Protocol: Compounds were also tested in a standard microplate test in Brain Heart Infusion (BHI) Agar, at a concentration of 1 mg/ml. Incubation is at 37° and end points are read at 20 hours. Brain Heart Infusion Agar (supplied by Difco Laboratories, Detroit, Michigan, U.S.A.) has the following composition:
Compounds (7β), (7α) and (9) were tested again along with compounds (11) and (14β) against a neamine control using the same conditions as given above.

P. morgani UC 3186 = experiment: standard microplate test in BHI Agar (MIC), P. morgani UC 3186; format: cell-based; settings: 20 h, read-out: Minimum Inhibitory Concentration, P. morgani UC 3186, retest table, neamine control
Procedure, shortened: as §1

P. vulgaris UC 93 = experiment: standard microplate test in BHI Agar (MIC), P. vulgaris UC 93; format: cell-based; settings: Proteus vulgaris, UC93, 20 h, read-out: Minimum Inhibitory Concentration, P. vulgaris UC 93
Procedure, shortened: as §1

K. pneumoniae UC 58 = experiment: standard microplate test in BHI Agar (MIC), K. pneumoniae UC 58; format: cell-based; settings: Klebsiella pneumoniae, UC58, 20 h, read-out: Minimum Inhibitory Concentration, K. pneumoniae UC 58
Procedure, shortened: as §1

E. coli UC 45 = experiment: standard microplate test in BHI Agar (MIC), E. coli UC 45; format: cell-based; settings: Escherichia coli, UC45, 20 h, read-out: Minimum Inhibitory Concentration, E. coli UC 45
Procedure, shortened: as §1

D. pneumoniae UC 41 = experiment: standard microplate test in BHI Agar (MIC), D. pneumoniae UC 41; format: cell-based; settings: Streptococcus pneumoniae, UC41, 20 h, read-out: Minimum Inhibitory Concentration, D. pneumoniae UC 41
Procedure, shortened: as §1

S. typhi TG-3 = experiment: standard microplate test in BHI Agar (MIC), S. typhi TG-3; format: cell-based; settings: Salmonella enterica, 20 h, S. typhi TG-3, retest table, neamine control, read-out: Minimum Inhibitory Concentration
Procedure, shortened: as §1

S. hemolyticus UC 152 = experiment: standard microplate test in BHI Agar (MIC), S. hemolyticus UC 152; format: cell-based, Streptococcus hemolyticus; settings: Streptococcus pyogenes, UC152, 20 h, read-out: Minimum Inhibitory Concentration, S. hemolyticus UC 152
Procedure, shortened: as §1

P. mirabilis A-63 = experiment: standard microplate test in BHI Agar (MIC), P. mirabilis A-63; format: cell-based
Procedure, shortened: as §1

S. aureus UC 76 = experiment: standard microplate test in BHI Agar (MIC), S. aureus UC 76; format: cell-based, Staphylococcus aureus; settings: Staphylococcus aureus, UC76, 20 h
Procedure, shortened: as §1

S. aureus UC 570 = experiment: standard microplate test in BHI Agar (MIC), S. aureus UC 570; format: cell-based; settings: Staphylococcus aureus, UC570, 20 h, 37°, first table, read-out: Minimum Inhibitory Concentration
Protocol: as §2

P. rettgeri UC 339 = experiment: standard microplate test in BHI Agar (MIC), P. rettgeri UC 339; format: cell-based; settings: Providencia rettgeri, UC339, 20 h, read-out: Minimum Inhibitory Concentration, P. rettgeri UC 339, retest table, neamine control
Procedure, shortened: as §1

S. flexneri UC 143 = experiment: standard microplate test in BHI Agar (MIC), S. flexneri UC 143; format: cell-based; settings: retest table, neamine control
Procedure, shortened: as §1

[1] = BHI agar, 37°, 20 h, first table
[2] = BHI agar, 37°, 20 h, first table, *run on different day
[3] = retest table, group (7β), (14β), neamine control
[4] = retest table, group (9), (11), (7α), neamine control

Question: Which MIC (St. faecalis UC 694; read-out: Minimum Inhibitory Concentration, S. faecalis UC 694, retest table, group (7β), (14β), neamine control) does the source give for `NC[C@H]1O[C@H](O[C@H]2[C@H](O)[C@@H](O)[C@H](N)C[C@@H]2N)[C@H](N)[C@@H](O)[C@@H]1O` [Neamine, reference compound] here?
Answer: The MIC was 500 µg/mL (≈ 1550 µM).

Question: What about the MIC (St. faecalis UC 694; read-out: Minimum Inhibitory Concentration, S. faecalis UC 694, retest table, group (9), (11), (7α), neamine control) of the same compound?
Answer: Its MIC is 500 µg/mL (≈ 1550 µM).

Question: And the MIC (St. faecalis UC 694; read-out: Minimum Inhibitory Concentration, St. faecalis UC 694, BHI agar, 37°, 20 h, first table)?
Answer: The MIC was 1000 µg/mL (≈ 3100 µM).

Question: And the MIC (St. faecalis UC 694; read-out: Minimum Inhibitory Concentration, St. faecalis UC 694, BHI agar, 37°, 20 h, first table, *run on different day)?
Answer: Its MIC is 500 µg/mL (≈ 1550 µM).

Question: And the MIC (S. marcescens UC 131; group (7β), (14β))?
Answer: The MIC was 250 µg/mL (≈ 776 µM).

Question: What about the MIC (S. marcescens UC 131; group (9), (11), (7α)) of the same compound?
Answer: Its MIC is 125 µg/mL (≈ 388 µM).

Question: What about the MIC (S. aureus UC 746; *run on different day) of the same compound?
Answer: The MIC was 62.5 µg/mL (≈ 194 µM).

Question: And the MIC (S. aureus UC 746)?
Answer: Its MIC is 250 µg/mL (≈ 776 µM).

Question: What about the MIC (Ps. aeruginosa UC 95; [1]) of the same compound?
Answer: Its MIC is greater than 1000 µg/mL.

Question: And the MIC (Ps. aeruginosa UC 95; [2])?
Answer: Its MIC is greater than 1000 µg/mL.

Question: And the MIC (Ps. aeruginosa UC 95; [3])?
Answer: The MIC was 1000 µg/mL (≈ 3100 µM).

Question: What about the MIC (Ps. aeruginosa UC 95; [4]) of the same compound?
Answer: Its MIC is 1000 µg/mL (≈ 3100 µM).

Question: What about the MIC (S. schottmuelleri UC 126; BHI agar, 37°, first table, *run on different day) of the same compound?
Answer: The MIC was 62.5 µg/mL (≈ 194 µM).

Question: And the MIC (S. schottmuelleri UC 126; BHI agar, 37°, first table)?
Answer: Its MIC is 62.5 µg/mL (≈ 194 µM).

Question: What about the MIC (S. schottmuelleri UC 126; [3]) of the same compound?
Answer: The MIC was 31.2 µg/mL (≈ 96.8 µM).

Question: And the MIC (S. schottmuelleri UC 126; [4])?
Answer: The MIC was 62.5 µg/mL (≈ 194 µM).

Question: And the MIC (P. morgani UC 3186; group (7β), (14β))?
Answer: The MIC was 62.5 µg/mL (≈ 194 µM).

Question: And the MIC (P. morgani UC 3186; group (9), (11), (7α))?
Answer: The MIC was 31.2 µg/mL (≈ 96.8 µM).

Question: What about the MIC (P. vulgaris UC 93; [1]) of the same compound?
Answer: The MIC was 250 µg/mL (≈ 776 µM).

Question: What about the MIC (P. vulgaris UC 93; [2]) of the same compound?
Answer: Its MIC is 125 µg/mL (≈ 388 µM).

Question: And the MIC (P. vulgaris UC 93; [3])?
Answer: The MIC was 62.5 µg/mL (≈ 194 µM).

Question: And the MIC (P. vulgaris UC 93; [4])?
Answer: The MIC was 15.6 µg/mL (≈ 48.4 µM).

Question: And the MIC (K. pneumoniae UC 58; [1])?
Answer: The MIC was 7.8 µg/mL (≈ 24.2 µM).

Question: And the MIC (K. pneumoniae UC 58; [2])?
Answer: Its MIC is 15.6 µg/mL (≈ 48.4 µM).

Question: And the MIC (K. pneumoniae UC 58; [3])?
Answer: The MIC was 3.9 µg/mL (≈ 12.1 µM).

Question: And the MIC (K. pneumoniae UC 58; [4])?
Answer: The MIC was 7.8 µg/mL (≈ 24.2 µM).

Question: And the MIC (E. coli UC 45; [1])?
Answer: Its MIC is 62.5 µg/mL (≈ 194 µM).

Question: What about the MIC (E. coli UC 45; [2]) of the same compound?
Answer: The MIC was 125 µg/mL (≈ 388 µM).

Question: What about the MIC (E. coli UC 45; [3]) of the same compound?
Answer: Its MIC is 62.5 µg/mL (≈ 194 µM).

Question: And the MIC (E. coli UC 45; [4])?
Answer: The MIC was 62.5 µg/mL (≈ 194 µM).

Question: And the MIC (D. pneumoniae UC 41; [1])?
Answer: The MIC was greater than 1000 µg/mL.

Question: What about the MIC (D. pneumoniae UC 41; [2]) of the same compound?
Answer: Its MIC is greater than 1000 µg/mL.

Question: And the MIC (D. pneumoniae UC 41; [3])?
Answer: The MIC was 31.2 µg/mL (≈ 96.8 µM).

Question: And the MIC (D. pneumoniae UC 41; [4])?
Answer: Its MIC is 62.5 µg/mL (≈ 194 µM).

Question: And the MIC (S. typhi TG-3; group (7β), (14β))?
Answer: Its MIC is 15.6 µg/mL (≈ 48.4 µM).

Question: What about the MIC (S. typhi TG-3; group (9), (11), (7α)) of the same compound?
Answer: The MIC was 31.2 µg/mL (≈ 96.8 µM).

Question: And the MIC (S. hemolyticus UC 152; [1])?
Answer: Its MIC is 3.9 µg/mL (≈ 12.1 µM).

Question: And the MIC (S. hemolyticus UC 152; [2])?
Answer: The MIC was 7.8 µg/mL (≈ 24.2 µM).

Question: What about the MIC (S. hemolyticus UC 152; [3]) of the same compound?
Answer: Its MIC is 3.9 µg/mL (≈ 12.1 µM).

Question: What about the MIC (S. hemolyticus UC 152; [4]) of the same compound?
Answer: Its MIC is 2 µg/mL (≈ 6.2 µM).

Question: And the “Minimum Inhibitory Concentration” value (P. mirabilis A-63; P. mirabilis A-63, retest table, group (7β), (14β), neamine control)?
Answer: Its value is 250 µg/mL.

Question: What about the MIC (P. mirabilis A-63; Proteus mirabilis, A63, 20 h, read-out: Minimum Inhibitory Concentration) of the same compound?
Answer: Its MIC is 250 µg/mL (≈ 776 µM).

Question: And the MIC (S. aureus UC 76; read-out: Minimum Inhibitory Concentration, S. aureus 284 UC 76, BHI agar, 37°, 20 h, first table)?
Answer: The MIC was 125 µg/mL (≈ 388 µM).

Question: And the MIC (S. aureus UC 76; read-out: Minimum Inhibitory Concentration, S. aureus 284 UC 76, BHI agar, 37°, 20 h, first table, *run on different day)?
Answer: The MIC was 62.5 µg/mL (≈ 194 µM).

Question: What about the MIC (S. aureus UC 76; read-out: Minimum Inhibitory Concentration, S. aureus UC 76, retest table, group (7β), (14β), neamine control) of the same compound?
Answer: The MIC was 31.2 µg/mL (≈ 96.8 µM).

Question: And the MIC (S. aureus UC 76; read-out: Minimum Inhibitory Concentration, S. aureus UC 76, retest table, group (9), (11), (7α), neamine control)?
Answer: The MIC was 31.2 µg/mL (≈ 96.8 µM).

Question: And the MIC (S. aureus UC 570; *run on different day)?
Answer: The MIC was 62.5 µg/mL (≈ 194 µM).

Question: And the MIC (S. aureus UC 570)?
Answer: Its MIC is 250 µg/mL (≈ 776 µM).

Question: What about the MIC (P. rettgeri UC 339; group (7β), (14β)) of the same compound?
Answer: The MIC was 1000 µg/mL (≈ 3100 µM).

Question: And the MIC (P. rettgeri UC 339; group (9), (11), (7α))?
Answer: Its MIC is 500 µg/mL (≈ 1550 µM).

Question: And the MIC (S. flexneri UC 143; Shigella flexneri, UC143, 20 h, group (9), (11), (7α), read-out: Minimum Inhibitory Concentration)?
Answer: Its MIC is 62.5 µg/mL (≈ 194 µM).

Question: What about the “Minimum Inhibitory Concentration” value (S. flexneri UC 143; group (7β), (14β)) of the same compound?
Answer: Its value is 62.5 µg/mL.
